Source: patent US20140303109A1 (priority 2010, published 2014)

Assays:
miR-21 = assay: Real-time RT-PCR of miR-21 in PC cell lines; assay type: cell-based, human; details: 72 h; BxPC-3, MIAPaCa-E, MIAPaCa-M
Protocol: The expression of miRNAs (miRNA-200a, miR-200b, and miR-21) in all three pancreatic cancer cell lines, was measured with a TaqMan MicroRNA Assay kit (Applied Biosystems, Carlsbad, Calif.) following the manufacturer's protocol. […] Total RNA was extracted, and 5 ng of each sample were reverse-transcribed in a method described by Li, et al., Cancer Res., Vol. 69, pages 6704-6712 (2009). Real-time RT-PCR reactions were then carried out in a total volume of 25 μl reaction mixture, as described by Li, et al., id., using Smart Cycler II (Cepheid, Sunnyvale, Calif.). The data were analyzed using Ct method and were normalized by RNU6B expression in each sample.

[1] = test system: NF-κB DNA binding activity; assay: EMSA for NF-κB DNA binding activity in tumor tissue; assay type: in vivo, mice; details: MIA PaCa-2 tumors
Protocol: Nuclear extracts were prepared from tumor tissue induced by the MIA PaCa-2 cells using an homogenizer with 400 μl of ice cold lysis buffer extracted as described earlier. EMSA was performed using the Odyssey Infrared Imaging System with NF-κβ 1RDye labeled oligonucleotide from LI-COR, Inc. (Lincoln, Nebr.). An NF-Kβ competition control study was conducted using unlabeled NF-Kβ consensus oligonucleotide. The samples were loaded and run at 30 mA for 1 hour. The gel was scanned using Odyssey Infrared Imaging System (LI-COR, Inc.).

rabbit 20S proteasome = assay: Chymotrypsin-like activity of purified 20S proteasome (Suc-LLVY-AMC); assay type: biochemical
Text: Purified rabbit 20S proteasome and a fluorogenic substrate Suc-LLVY-AMC for the proteasomal chymotrypsin-like activity were obtained from Calbiochem Inc. (San Diego, Calif.).

[2] = test system: NF-κB DNA binding activity; assay: EMSA for NF-κB DNA binding activity, MIA PaCa-2; assay type: cell-based, human; details: CUR 4 μM, CDF 2 μM

SMILES | expression of miR-21 (miR-21) | NF-κβ activation in tumor tissue [1] | proteasome inhibition (rabbit 20S proteasome; 10 μM) [%] | inhibition of chymotrypsin-like activity of the proteasome (rabbit 20S proteasome; 1-10 μM, 2 h 37° C.) | NF-κB DNA binding activity [2]
COc1cc(/C=C/C(=O)C(=Cc2ccc(F)c(F)c2)C(=O)/C=C/c2ccc(O)c(OC)c2)ccc1O [CDF, (1E,6E)-1,7-bis(4-hydroxy-3-methoxyphenyl)hepta-1,6-diene{4(3,4 difluorobenzaldehyde)}-3,5-dione] | significant reduction in the expression of miR-21 | down-regulated NF-κβ activation |  |  | 
COc1cc(/C=C/C(=O)CC(=O)/C=C/c2ccc(O)c(OC)c2)ccc1O [CUR, (1E,6E)-1,7-bis(4-hydroxy-3-methoxyphenyl)hepta-1,6-diene-3,5-dione, reference compound] |  |  | 70 | 20-70% | down-regulation of NF-κB
